From US20230242530A1, “8-(AZETIDIN-1-YL)-[1,2,4]TRIAZOLO[1,5-A]PYRIDINYL COMPOUNDS, COMPOSITIONS AND METHODS OF USE THEREOF” (Genentech, Inc., priority 2016, published 2023) come the findings set out here.

For assay [1], the target named is T1, isolated recombinant JAK1 kinase domain (Homo sapiens, UniProt P23458).
T1 construct: isolated recombinant JAK1 and JAK2 kinase domain
The assay can be described thus: JAK enzyme assay, JAK1 kinase domain (Caliper LabChip). It counts as biochemical. The note with it: 1.5 nM JAK1, ATP 25 μM, Morrison tight binding model. In outline:
(§1)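 Recombinant kinase domains phosphorylated a 5-carboxyfluorescein-labelled JAK3-derived peptide for 30 min at 22 °C, and the reaction was stopped with EDTA (50 mM final). Product fraction was measured by Caliper LabChip mobility shift. Ki came from Morrison tight-binding fits corrected for ATP competition (Ki=Ki,app/(1+[ATP]/Km,app)).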

Assay [2] has as its target T2, isolated recombinant JAK2 kinase domain (Homo sapiens, UniProt O60674).
T2 construct: isolated recombinant JAK1 and JAK2 kinase domain
The assay can be described thus: JAK enzyme assay, JAK2 kinase domain (Caliper LabChip). It counts as biochemical. As to conditions: 0.2 nM JAK2, ATP 25 μM, Morrison tight binding model. A digest of the protocol:
as §1

The subject of assay [3] is JAK1-dependent STAT6 phosphorylation downstream of IL-13 stimulation in BEAS-2B cells. The assay can be described thus: JAK1 pathway assay in cell lines: IL-13 p-STAT6 BEAS-2B. The note with it: BEAS-2B human bronchial epithelial cells, 1 hr compound, IL-13 15 min, MSD readout. Type of assay: cell-based. As to the method: JAK1 Pathway Assay in Cell Lines was Carried Out as Follows:
Inhibitor potency (EC50) was determined in cell-based assays designed to measure JAK1 dependent STAT phosphorylation. As noted above, inhibition of IL-4, IL-13, and IL-9 signalling by blocking the Jak/Stat signaling pathway can alleviate asthmatic symptoms in pre-clinical lung inflammation models (Mathew et al., 2001, J Exp Med 193(9): 1087-1096; Kudlacz et. al., 2008, Eur J. Pharmacol 582(1-3): 154-161).
In one assay approach, TF-1 human erythroleukemia cells obtained from the American Type Culture Collection (ATCC; Manassas, Va.) were used to measure JAK1-dependent STAT6 phosphorylation downstream of IL-13 stimulation. Prior to use in the assays, TF-1 cells were starved of GM-CSF overnight in OptiMEM medium (Life Technologies, Grand Island, N.Y.) supplemented with 0.5% charcoal/dextran stripped fetal bovine serum (FBS), 0.1 mM non-essential amino acids (NEAA), and 1 mM sodium pyruvate. The assays were run in 384-well plates in serum-free OptiMEM medium using 300,000 cells per well. In a second assay approach, BEAS-2B human bronchial epithelial cells obtained from ATCC were plated at 100,000 cells per well of a 96-well plate one day prior to the experiment. The BEAS-2B assay was run in complete growth medium (bronchial epithelial basal medium plus bulletkit; Lonza; Basel, Switzerland).
Test compounds were serially diluted 1:2 in DMSO and then diluted 1:50 in medium just before use. Diluted compounds were added to the cells, for a final DMSO concentration of 0.2%, and incubated for 30 mi (for the TF-1 assay) or 1 hr (for the BEAS-2B assay) at 37 QC. Then, cells were stimulated with human recombinant cytokine at their respective EC90 concentrations, as previously determined for each individual lot. Cells were stimulated with IL-13 (R&D Systems, Minneapolis, Minn.) for 15 min at 37 °C. The TF-1 cell reactions were stopped by the direct addition of 10× lysis buffer (Cell Signaling Technologies, Danvers, Mass.), whereas the BEAS-2B cell incubations were halted by the removal of medium and addition of 1× lysis buffer. The resultant samples were frozen in the plates at −80 °C. Compound mediated inhibition of STAT6 phosphorylation was measured in the cell lysates using MesoScale Discovery (MSD) technology (Gaithersburg, Md.). EC50 values were determined as the concentration of compound required for 50% inhibition of STAT phosphorylation relative to that measured for the DMSO control.

T2 sequence (O60674 849-1124 limits assumed): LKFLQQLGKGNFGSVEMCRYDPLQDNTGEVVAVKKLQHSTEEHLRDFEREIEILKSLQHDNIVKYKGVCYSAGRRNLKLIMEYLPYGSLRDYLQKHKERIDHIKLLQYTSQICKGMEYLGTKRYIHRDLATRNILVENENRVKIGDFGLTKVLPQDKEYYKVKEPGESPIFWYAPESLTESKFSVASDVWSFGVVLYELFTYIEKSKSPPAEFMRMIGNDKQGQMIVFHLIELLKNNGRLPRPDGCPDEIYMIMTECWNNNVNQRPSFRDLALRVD
T1 sequence (P23458 875-1153 limits assumed): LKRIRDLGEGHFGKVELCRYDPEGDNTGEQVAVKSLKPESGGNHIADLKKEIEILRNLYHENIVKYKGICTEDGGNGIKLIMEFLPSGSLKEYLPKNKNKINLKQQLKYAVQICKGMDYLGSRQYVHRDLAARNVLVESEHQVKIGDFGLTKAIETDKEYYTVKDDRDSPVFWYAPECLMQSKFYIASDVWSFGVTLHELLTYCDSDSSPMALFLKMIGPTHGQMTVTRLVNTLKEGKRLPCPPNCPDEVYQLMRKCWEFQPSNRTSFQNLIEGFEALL

As usually defined, the Ki is a dissociation constant, usually derived from enzyme kinetics or from competition with a known ligand. A word on the EC50: it is the concentration at which the effect is half-maximal. `CN(CC1(C#N)CC1)C1CCN(C(=O)Cn2cc(Nc3nc4c(N5CC(CC#N)(n6cc(C(F)(F)F)cn6)C5)cccn4n3)cn2)CC1` [Example 109, 1-[[[1-[2-[4-[[8-[3-(cyanomethyl)-3-[4-(trifluoromethyl)pyrazol-1-yl]azetidin-1-yl]-[1,2,4]triazolo[1,5-a]pyridin-2-yl]amino]pyrazol-1-yl]acetyl]-4-piperidyl]-methyl-amino]methyl]cyclopropane carbonitrile]: the Ki worked out at 0.5 nM in assay [1] and 0.4 nM in assay [2]. The same compound yielded an EC50 in assay [3] of 58 nM.
Turning to `CCc1cnn(C2(CC#N)CN(c3cccn4nc(Nc5ccc(C(=O)N(C)CC6CCN(C7COC7)CC6)cc5)nc34)C2)c1` [Example 88, 4-[[8-[3-(cyanomethyl)-3-(4-ethylpyrazol-1-yl)azetidin-1-yl]-[1,2,4]triazolo[1,5-a]pyridin-2-yl]amino]-N-methyl-N-[[1-(oxetan-3-yl)-4-piperidyl]methyl]benzamide], the Ki in assay [1] worked out at 0.4 nM; in assay [2], 1 nM. In assay [3], this compound yielded an EC50 of 35 nM.
In the same order, the values of `CCc1cnn(C2(CC#N)CN(c3cccn4nc(Nc5cnn(C)c5)nc34)C2)c1` [Example 127, 2-(3-(4-ethyl-1H-pyrazol-1-yl)-1-(2-((1-methyl-H-pyrazol-4-yl)amino)-[1,2,4]triazolo[1,5-a]pyridin-8-yl)azetidin-3-yl)acetonitrile] are 0.2 nM, 0.4 nM and 10 nM.
For `N#CCC1(n2cc(Br)cn2)CN(c2cccn3nc(Nc4cnn(CC(=O)N5CCC(N6CCOCC6)CC5)c4)nc23)C1` [Example 130, 2-[3-(4-bromopyrazol-1-yl)-1-[2-[[1-[2-(4-morpholino-1-piperidyl)-2-oxo-ethyl]pyrazol-4-yl]amino]-[1,2,4]triazolo[1,5-a]pyridin-8-yl]azetidin-3-yl]acetonitrile], the Ki in assay [1] worked out at 0.4 nM; in assay [2], 1.1 nM. The response in assay [3] was half-maximal at 117 nM (EC50).
On the same counts, the results for `CCc1cnn(C2(CC#N)CN(c3cccn4nc(Nc5ccc(C(=O)N6CCC(N7CCOCC7)CC6)cc5)nc34)C2)c1` [Example 36, 2-[3-(4-ethylpyrazol-1-yl)-1-[2-[4-(4-morpholinopiperidine-1-carbonyl)anilino]-[1,2,4]triazolo[1,5-a]pyridin-8-yl]azetidin-3-yl]acetonitrile] are 0.4 nM, 1.6 nM and 52 nM.
On the same counts, the results for `CCc1cnn(C2(CC#N)CN(c3cccn4nc(Nc5cccc(CC(=O)N6CCN(C)CC6)c5)nc34)C2)c1` [Example 5, 2-[3-(4-ethyl-1H-pyrazol-1-yl)-1-[2-([3-[2-(4-methylpiperazin-1-yl)-2-oxoethyl]phenyl]amino)-[1,2,4]triazolo[1,5-a]pyridin-8-yl]azetidin-3-yl]acetonitrile] are 1.9 nM, 3.1 nM and 120 nM.
`CCc1cnn(C2(CC#N)CN(c3cccn4nc(Nc5cnn(CC(=O)N6CCC(NCC(C)(C)C#N)CC6)c5)nc34)C2)c1` [Example 33, 3-[[1-[2-[4-[[8-[3-(cyanomethyl)-3-(4-ethylpyrazol-1-yl)azetidin-1-yl]-[1,2,4]triazolo[1,5-a]pyridin-2-yl]amino]pyrazol-1-yl]acetyl]-4-piperidyl]amino]-2,2-dimethyl-propanenitrile]: the Ki is 0.3 nM in assay [1] and 0.2 nM in assay [2]. This compound displayed an EC50 in assay [3] of 18 nM.
Consider `CCc1cnn(C2(CC#N)CN(c3cccn4nc(Nc5cnn(CC(=O)N6CCC(NCC(C)(F)F)CC6)c5)nc34)C2)c1` [Example 30, 2-[1-[2-[[1-[2-[4-(2,2-difluoropropylamino)-1-piperidyl]-2-oxo-ethyl]pyrazol-4-yl]amino]-[1,2,4]triazolo[1,5-a]pyridin-8-yl]-3-(4-ethylpyrazol-1-yl)azetidin-3-yl]acetonitrile], for which the Ki in assay [1] amounted to 0.7 nM; in assay [2] it was 2.7 nM. Also, a half-maximal response in assay [3] (EC50) required 104 nM.
As for `COc1ccc(CCC2(CC#N)CN(c3cccn4nc(Nc5cnn(CC(=O)N6CCN(C)CC6)c5)nc34)C2)cc1` [Example 117, 2-[3-[2-(4-methoxyphenyl)ethyl]-1-[2-[[1-[2-(4-methylpiperazin-1-yl)-2-oxo-ethyl]pyrazol-4-yl]amino]-[1,2,4]triazolo[1,5-a]pyridin-8-yl]azetidin-3-yl]acetonitrile], the Ki in assay [1] turned out to be 0.4 nM; in assay [2], 2.4 nM. Moreover, a half-maximal response in assay [3] (EC50) required 20 nM.
In the same order, the values of `CCc1cnn(C2(CC#N)CN(c3cccn4nc(Nc5ccc(C(=O)N6CCN(C)CC6)c(C)c5)nc34)C2)c1` [Example 92, 2-[3-(4-ethylpyrazol-1-yl)-1-[2-[3-methyl-4-(4-methylpiperazine-1-carbonyl)anilino]-[1,2,4]triazolo[1,5-a]pyridin-8-yl]azetidin-3-yl]acetonitrile] are 0.4 nM, 1.7 nM and 19 nM.
Turning to `CCc1cnn(C2(CC#N)CN(c3cccn4nc(Nc5ccc6c(c5)CCN(C5COC5)C6)nc34)C2)c1` [Example 51, 2-[3-(4-ethylpyrazol-1-yl)-1-[2-[[2-(oxetan-3-yl)-3,4-dihydro-1H-isoquinolin-6-yl]amino]-[1,2,4]triazolo[1,5-a]pyridin-8-yl]azetidin-3-yl]acetonitrile], the Ki in assay [1] came to 0.3 nM; in assay [2], 1.6 nM. Further, the midpoint of the response in assay [3], the EC50, lay at 44 nM.
In the same order, the values of `CCc1cnn(C2(CC#N)CN(c3cccn4nc(Nc5ccc(C(=O)N6CCN(C7CCOCC7)CC6)cc5)nc34)C2)c1` [Example 37, 2-[3-(4-ethylpyrazol-1-yl)-1-[2-[4-(4-tetrahydropyran-4-ylpiperazine-1-carbonyl)anilino]-[1,2,4]triazolo[1,5-a]pyridin-8-yl]azetidin-3-yl]acetonitrile] are 0.5 nM, 2.9 nM and 23 nM.
In the case of `CN1CCN(C(=O)Cn2cc(Nc3nc4c(N5CC(CC#N)(Cc6ccccc6Cl)C5)cccn4n3)cn2)CC1` [Example 126, 2-[3-[(2-chlorophenyl)methyl]-1-[2-[[1-[2-(4-methylpiperazin-1-yl)-2-oxo-ethyl]pyrazol-4-yl]amino]-[1,2,4]triazolo[1,5-a]pyridin-8-yl]azetidin-3-yl]acetonitrile], the Ki in assay [1] came to 0.2 nM; in assay [2], 0.4 nM. This compound also returned an EC50 in assay [3] of 12 nM.
On the same counts, the results for `N#CCC1(n2cc(C(F)(F)F)cn2)CN(c2cccn3nc(Nc4ccc(CC(=O)N5CCN(C6COC6)CC5)cc4)nc23)C1` [Example 115, 2-[1-[2-[4-[2-[4-(oxetan-3-yl)piperazin-1-yl]-2-oxo-ethyl]anilino]-[1,2,4]triazolo[1,5-a]pyridin-8-yl]-3-[4-(trifluoromethyl)pyrazol-1-yl]azetidin-3-yl]acetonitrile] are 2.4 nM, 22.9 nM and 139 nM.
On to `CCc1cnn(C2(CC#N)CN(c3cccn4nc(Nc5cnn(CC(=O)N6CCN(CCOC)CC6)c5)nc34)C2)c1` [Example 46, 2-[3-(4-ethylpyrazol-1-yl)-1-[2-[[1-[2-[4-(2-methoxyethyl)piperazin-1-yl]-2-oxo-ethyl]pyrazol-4-yl]amino]-[1,2,4]triazolo[1,5-a]pyridin-8-yl]azetidin-3-yl]acetonitrile], for which the Ki in assay [1] and in assay [2] was 0.2 nM in each case. For the same compound, the midpoint of the response in assay [3], the EC50, lay at 7 nM.
Turning to `N#CCC1(n2cc(C(F)(F)F)cn2)CN(c2cccn3nc(Nc4ccc5c(c4)CCN(C4COC4)C5)nc23)C1` [Example 121, 2-[1-[2-[[2-(oxetan-3-yl)-3,4-dihydro-1H-isoquinolin-6-yl]amino]-[1,2,4]triazolo[1,5-a]pyridin-8-yl]-3-[4-(trifluoromethyl)pyrazol-1-yl]azetidin-3-yl]acetonitrile], the Ki in assay [1] was 0.5 nM; in assay [2], 4.4 nM. Also, the EC50 in assay [3] amounted to 31 nM.
